# Measured values: paper PMC5803267, “A small molecule inhibitor of Rheb selectively targets mTORC1 signaling” (Nature Communications, 2018)
# How the values were obtained:
# [1] = system: T389pS6K1 (mTORC1 activity) in MCF-7 cells; experiment: T389pS6K1 AlphaLISA assay in MCF-7 cells; format: cell-based, human
# Description: We next evaluated the activity of NR1 in cell culture. Selective inhibition of mTORC1 in cells produces a specific signaling signature characterized by a reduction in phosphorylation of the mTORC1 substrates S6K1 and 4E-BP1 and increase in phosphorylation of AKT, catalyzed by mTORC2. This distinctive profile reflects the relief of a feedback loop where active S6K1 directly phosphorylates IRS1, resulting in the degradation of IRS1 and subsequent reduction of growth factor signaling from RTKs to downstream effectors such as AKT[1]. Conversely, reduction in ^T389pS6K1 is expected to lead to an increase in ^S473pAKT levels. We used AlphaLISA assays to detect ^T389pS6K1 and ^S473pAKT in MCF-7 cells. […]
# Evaluation of NR1 in MCF-7 under replete conditions. […] The indicated phosphoproteins were detected using AlphaLISA assays for T389pS6K1 (reflecting mTORC1 activity) and S473pAKT (reflecting mTORC2 activity). […]
# The compounds were added to the kinase reaction mixture by Acoustic technology (Echo550; nanoliter range) and incubated for 20 min at room temperature before the addition of 100 µM 33P-ATP. The reaction was incubated for 2 h at room temperature, and kinase activity was detected by a P81 filter- […]
# AlphaLISA assays. […] The AlphaLISA protocol was performed in 384-well plates as instructed by Perkin Elmer, and the plates were read on an EnVision plate reader. […]
# [2] = system: mTORC1 activity (S240/244pS6) in skeletal muscle; experiment: PD study: feeding-induced mTORC1 activation in gastrocnemius muscle; format: in vivo, mouse; settings: mice fasted 16 h, 30 mg kg^−1 IP, re-fed 2 h
# Procedure: (§1) The selective inhibition of mTORC1 activation by NR1 in vitro and in cell-based systems prompted us to evaluate the effect of this compound on mTORC1 activity in vivo. […] In particular, the plasma concentration of NR1 was sustained over 5 µM for 2 h after IP administration of a 30 mg kg^−1 dose (Supplementary Fig. 10). We therefore carried out a pharmacodynamic (PD) study to evaluate the efficacy of NR1 at inhibiting mTORC1 signaling in vivo. In this experiment, mice were starved overnight to achieve a low basal level of mTORC1 activation (pre-dose). After a 16 h fast, the animals were treated with either vehicle or 30 mg kg^−1 NR1 and allowed to re-feed for 2 h before sacrifice and tissue collection. mTORC1 activity was measured by quantification of ^S240/244pS6 by Western blot analysis with a specific antibody. We chose kidney and gastrocnemius muscle as target tissues due to the relevance of mTORC1 in renal cell carcinoma[51] and angiomyolipomas in TSC and LAM[12] and for its important role in the regulation of protein synthesis and muscle mass[52]. The results are summarized in Fig. 6 for skeletal muscle and Supplementary Fig. 11 for kidney.
# Fig. 6 NR1 inhibits feeding-induced mTORC1 activation in skeletal muscle. […] After 2 h, gastrocnemius muscle was collected, and ^S240/244pS6 levels were measured by Western blot and quantified. […]
# [3] = system: mTORC1 activity (S240/244pS6) in kidney; experiment: PD study: feeding-induced mTORC1 activation in kidney; format: in vivo, mouse; settings: mice fasted 16 h, 30 mg kg^−1 IP, re-fed 2 h
# Procedure: as §1, with “We chose kidney and gastrocnemius muscle as target tissues due to the relevance of mTORC1 in renal cell carcinoma[51] and angiomyolipomas in TSC and LAM[12] and for its important role in the regulation of protein synthesis and muscle mass[52]. The results are summarized in Fig. 6 for skeletal muscle and Supplementary Fig. 11 for kidney.” left out
# This study was conducted in accordance with the requirements for the humane care and use of animals set forth in the Animal Welfare Act, the IACUC Guide for the Care and Use of Laboratory Animals, applicable Shanghai and state laws, and regulations and policies of Shanghai ChemPartner Ltd. The animals were not randomized, and the study was not blinded. […] Compound levels in the plasma of treated mice were measured by LC-MS/MS and compared to a standard curve of compound diluted into mouse plasma. […]
smiles,measurement,setting,value
"CN(C)C(=O)c1ccc(Cn2c(C(=O)O)cc3c(Br)cc(Sc4ccc(Cl)c(Cl)c4)cc32)cc1 [NR1, 4-bromo-6-(3,4-dichlorophenylthio)-1-(4-(dimethylcarbamoyl)benzyl)-1H-indole-2-carboxylic acid]",IC50,"[1]; Homo sapiens, MCF7, inhibition of S6K phosphorylation in cells, read-out: potency in cellular assays",2000 nM
same,phosphorylation of T389pS6K1,"[1]; MCF-7, replete conditions, 120 min, dose-dependent",inhibited the phosphorylation
same,T37/46 4E-BP1 in skeletal muscle,[2],clear band shift
same,mTORC1 activity (S240/244pS6) in skeletal muscle versus vehicle,[2],significantly reduced mTORC1 activity
same,mTORC1 activity (S240/244pS6) in kidney versus vehicle,[3],significantly reduced mTORC1 activity
